Source: US20070004623A1, “Use of hydroxylated amino acids for treating diabetes” (Innodia Inc., priority 2003, published 2007)

Columns and labels:
Format in all cases: cell-based
[1] = system: INS-1 cells; experiment: glucose-dependent insulin secretion in INS-1 cells, ID 1101 with Glibenclamide; conditions: 4.5 mM glucose, 1 hour
Procedure: The optical isomer 2S,3R,4S of 4-hydroxyisoleucine (ID 1101) was tested in a blinded manner, alone and in combination with Glibenclamide, to determine the insulinotropic effect on INS-1 cells. Briefly, the cells were plated at a density of 2×10^5 in 12 well plates and incubated for 2 days in RPMI with 10% fetal calf serum and 11 mM glucose. The medium was removed on the third day post-plating and replaced with RPMI containing 3 mM glucose with 10% fetal calf serum. The cells were incubated for an additional 24 hours. On the fourth day post-plating, the medium was removed and replaced with Krebs-Ringers bicarbonate buffer containing 2 mM glucose. The cells were incubated for 30 minutes. The buffer was removed and replaced with Krebs-Ringers bicarbonate buffer with 4.5 mM glucose, containing ID 1101 at 0.1 mM, Glibenclamide alone at 10-10 mM or 10^−11 mM, or a combination of the 2 compounds. The cells were incubated for 1 hour. Basal insulin secretion was determined by incubating the cells in the presence of buffer with 2 mM glucose. The presence of glucose at 4.5 mM stimulated insulin secretion and served as the positive control.

[2] = system: INS-1 cells; experiment: glucose-dependent insulin secretion in INS-1 cells, ID 1101 with Exendin-4; conditions: 4.5 mM glucose, 1 hour
Procedure: The optical isomer 2S,3R,4S of 4-hydroxyisoleucine (ID 1101) was tested alone and in combination with Exendin-4, to determine the insulinotropic effect on INS-1 cells. Briefly, the cells were plated at a density of 2×10^5 in 12 well plates and incubated for 2 days in RPMI with 10% fetal calf serum and 11 mM glucose. The medium was removed on the third day post-plating and replaced with RPMI containing 3 mM glucose with 10% fetal calf serum. The cells were incubated for an additional 24 hours. On the fourth day post-plating, the medium was removed and replaced with Krebs-Ringers bicarbonate buffer containing 2 mM glucose. The cells were incubated for 30 ninutes. The buffer was removed and replaced with Krebs-Ringers bicarbonate buffer with 4.5 mM glucose, containing ID 1101 at 0.01 or 0.05 mM, Exendin-4 alone at 10^−9 mM or 10^−10 mM, or a combination of the 2 compounds. The cells were incubated for 1 hour. Basal insulin secretion was determined by incubating the cells in the presence of buffer with 2 mM glucose. The effect of glucose at 4.5 mM served as the control.

[3] = system: differentiated 3T3-L1 adipocyte cells; experiment: uptake of 3H-deoxy-glucose by differentiated 3T3-L1 adipocyte cells; conditions: last 30 minutes of 5 hour starvation, control cells 2 pmol/mg/minute
Procedure: Briefly, 3T3-L1 adipocyte cells (ATCC; Cl-173) were cultured in 12 well tissue culture plates for 3 days in order to reach confluence ([…] al., “Analysis of insulin-stimulated glucose uptake in differentiated 3T3-L1 adipocytes,” Diabetes Mellitus: Methods and Protocols, ([…]., 2003, pages 97-103). The culture medium was removed and replaced with differentiation-medium (Green et al., Cell 3:127-133, 1974; Madsen et al., Biochem. J. 375:539-549, 2003), and then the cells were incubated for an additional 9 days. The state of differentiation was confirmed by visual examination. Cell starvation was conducted for 5 hours by replacing the differentiation medium with medium lacking fetal calf serurn. During the starvation period, the cells were exposed ID 1101 (0.5 or 1.0 mM), for 0.5, 1, 2, 4, or 5 hours. The cells were exposed to insulin (0.0167 U/ml; Sigma; Cat. No. 15534) for the last 0.5 hour of the starvation period, either alone or in combination ID 1101. The cells were washed, and then fresh medium containing 16 μM ^3H-Deoxy-D-glucose (0.5 μCi/ml) and 10 μM 2-Deoxy-D-glucose was added and the cells were incubated for 10 minutes. Glucose uptake was stopped by washing the cells with ice cold PBS. The cells were lysed and specific activity in the lysate was determined relative to background uptake of ^3H-deoxy-glucose. […]

COc1ccc(Cl)cc1C(=O)NCCc1ccc(S(=O)(=O)NC(=O)NC2CCCCC2)cc1 [Glibenclamide]
insulin secretion ([1]; Glibenclamide 10^−10 mM): showed a stimulatory effect
insulin secretion ([1]; Glibenclamide 10^−11 mM): not

C[C@@H]([C@H](C)O)[C@H](N)C(=O)O [ID 1101, 4-hydroxyisoleucine]
insulin secretion ([2]; ID 1101 0.01 or 0.05 mM): stimulated insulin secretion above background levels
stimulation of glucose uptake above the background level ([3]; ID 1101 0.5 or 1.0 mM as sole treatment): approximately 5 pmol/mg/minute
insulin secretion ([1]; ID 1101 0.1 mM): stimulated insulin secretion above background levels

Exendin-4 [reference compound]
insulin secretion ([2]; Exendin-4 10^−9 and 10^−10 mM): did not show a stimulatory effect

insulin
stimulation of glucose uptake above the background level ([3]; insulin 0.0167 U/ml as sole treatment): approximately 5 pmol/mg/minute
